Experimental data taken from patent US9006250B2, “4-amino-6-(heterocyclic)picolinates and 6-amino-2-(heterocyclic)pyrimidine-4-carboxylates and their use as herbicides” (Dow AgroSciences, LLC, priority 2013, dated 2015).

Columns and labels:
[1] = tested on: EPHHL: wild poinsettia (Euphorbia heterophylla); assay: Post-Emergent Test II herbicidal activity; type: in vivo; conditions: post-emergence, 336 h, 14 days, read-out: Visual Growth Reduction (%) 14 Days After Application EPHHL; for pest or weed control at 35 g/ha: 35 g ai/ha; for pest or weed control at 70 g/ha: 70 g ai/ha; for pest or weed control at 140 g/ha: 140 g ai/ha
Description: (§1) Post-Emergent Test II: Seeds or nutlets of the desired test plant species were planted in Sun Gro Metro-Mix® 360 planting mixture, which typically has a pH of 6.0 to 6.8 and an organic matter content of about 30 percent, in plastic pots with a surface area of 64 square centimeters. When required to ensure good germination and healthy plants, a fungicide treatment and/or other chemical or physical treatment was applied. The plants were grown for 7-21 d in a greenhouse with an approximate 15 h photoperiod which was maintained at about 23-29° C. during the day and 22-28° C. during the night. Nutrients and water were added on a regular basis and supplemental lighting was provided with overhead metal halide 1000-Watt lamps as necessary. The plants were employed for testing when they reached the first or second true leaf stage.
(§2) A weighed amount, determined by the highest rate to be tested, of each test compound was placed in a 25 mL glass vial and was dissolved in 4 mL of a 97:3 v/v mixture of acetone and DMSO to obtain concentrated stock solutions. […] The concentrated stock solutions obtained were diluted with 20 mL of an aqueous mixture containing acetone, water, isopropyl alcohol, DMSO, Atplus 411F crop oil concentrate, and Triton® X-155 surfactant in a 48.5:39:10:1.5:1.0:0.02 v/v ratio to obtain spray solutions containing the highest application rates. Additional application rates were obtained by serial dilution of 12 mL of the high rate solution into a solution containing 2 mL of 97:3 v/v mixture of acetone and DMSO and 10 mL of an aqueous mixture containing acetone, water, isopropyl alcohol, DMSO, Atplus 411F crop oil concentrate, and Triton X®-155 surfactant in a 48.5:39:10:1.5:1.0:0.02 v/v ratio to obtain ½×, ¼×, ⅛× and 1/16× rates of the high rate. Compound requirements are based upon a 12 mL application volume at a rate of 187 liters per hectare (L/ha). Formulated compounds were applied to the plant material with an overhead Mandel track sprayer equipped with 8002E nozzles calibrated to deliver 187 L/ha over an application area of 0.503 square meters at a spray height of 18 inches […] above the average plant canopy height. Control plants were sprayed in the same manner with the solvent blank.
(§3) The treated plants and control plants were placed in a greenhouse as described above and watered by subirrigation to prevent wash-off of the test compounds. After 14 d, the condition of the test plants as compared with that of the untreated plants was determined visually and scored on a scale of 0 to 100 percent where 0 corresponds to no injury and 100 corresponds to complete kill.

[2] = tested on: CHEAL: lambsquarters (Chenopodium album); assay: Post-Emergent Test II herbicidal activity; type: in vivo; conditions: post-emergence, 336 h, 14 days, read-out: Visual Growth Reduction (%) 14 Days After Application CHEAL; for pest or weed control at 35 g/ha: 35 g ai/ha; for pest or weed control at 70 g/ha: 70 g ai/ha; for pest or weed control at 140 g/ha: 140 g ai/ha
Description: as §1, §2, §3

[3] = tested on: HELAN: sunflower (Helianthus annuus); assay: Post-Emergent Test II herbicidal activity; type: in vivo; conditions: post-emergence, 336 h, 14 days, read-out: Visual Growth Reduction (%) 14 Days After Application HELAN; for pest or weed control at 35 g/ha: 35 g ai/ha; for pest or weed control at 70 g/ha: 70 g ai/ha; for pest or weed control at 140 g/ha: 140 g ai/ha
Description: as §1, §2, §3

[4] = tested on: AMARE: redroot pigweed (Amaranthus retroflexus); assay: Post-Emergent Test II herbicidal activity; type: in vivo; conditions: post-emergence, 336 h, 14 days, read-out: Visual Growth Reduction (%) 14 Days After Application AMARE; for pest or weed control at 35 g/ha: 35 g ai/ha; for pest or weed control at 70 g/ha: 70 g ai/ha; for pest or weed control at 140 g/ha: 140 g ai/ha
Description: as §1, §2, §3

[5] = tested on: CYPES: yellow nutsedge (Cyperus esculentus); assay: Post-Emergent Test II herbicidal activity; type: in vivo; conditions: post-emergence, 336 h, 14 days, read-out: Visual Growth Reduction (%) 14 Days After Application CYPES; for pest or weed control at 35 g/ha: 35 g ai/ha; for pest or weed control at 70 g/ha: 70 g ai/ha; for pest or weed control at 140 g/ha: 140 g ai/ha
Description: as §1, §2, §3

[6] = tested on: BRSNN: oilseed rape, canola (Brassica napus); assay: Post-Emergent Test II herbicidal activity; type: in vivo; conditions: post-emergence, 336 h, 14 days, read-out: Visual Growth Reduction (%) 14 Days After Application BRSNN; for pest or weed control at 35 g/ha: 35 g ai/ha; for pest or weed control at 70 g/ha: 70 g ai/ha; for pest or weed control at 140 g/ha: 140 g ai/ha
Description: as §1, §2, §3

[7] = tested on: ORYSA: rice (Oryza sativa); assay: Post-Emergent Test II herbicidal activity; type: in vivo; conditions: post-emergence, 336 h, 14 days, read-out: Visual Growth Reduction (%) 14 Days After Application ORYSA; for pest or weed control at 35 g/ha: 35 g ai/ha; for pest or weed control at 70 g/ha: 70 g ai/ha; for pest or weed control at 140 g/ha: 140 g ai/ha
Description: as §1, §2, §3

[8] = tested on: ABUTH: velvetleaf (Abutilon theophrasti); assay: Post-Emergent Test II herbicidal activity; type: in vivo; conditions: post-emergence, 336 h, 14 days, read-out: Visual Growth Reduction (%) 14 Days After Application ABUTH; for pest or weed control at 35 g/ha: 35 g ai/ha; for pest or weed control at 70 g/ha: 70 g ai/ha; for pest or weed control at 140 g/ha: 140 g ai/ha
Description: as §1, §2, §3

[9] = tested on: TRZAS: wheat, spring (Triticum aestivum); assay: Post-Emergent Test II herbicidal activity; type: in vivo; conditions: post-emergence, 336 h, 14 days, read-out: Visual Growth Reduction (%) 14 Days After Application TRZAS; for pest or weed control at 35 g/ha: 35 g ai/ha; for pest or weed control at 70 g/ha: 70 g ai/ha; for pest or weed control at 140 g/ha: 140 g ai/ha
Description: as §1, §2, §3

[10] = tested on: SETFA: giant foxtail (Setaria faberi); assay: Post-Emergent Test II herbicidal activity; type: in vivo; conditions: post-emergence, 336 h, 14 days, read-out: Visual Growth Reduction (%) 14 Days After Application SETFA; for pest or weed control at 35 g/ha: 35 g ai/ha; for pest or weed control at 70 g/ha: 70 g ai/ha; for pest or weed control at 140 g/ha: 140 g ai/ha
Description: as §1, §2, §3

[11] = tested on: ECHCG: barnyardgrass (Echinochloa crus-galli); assay: Post-Emergent Test II herbicidal activity; type: in vivo; conditions: post-emergence, 336 h, 14 days, read-out: Visual Growth Reduction (%) 14 Days After Application ECHCG; for pest or weed control at 35 g/ha: 35 g ai/ha; for pest or weed control at 70 g/ha: 70 g ai/ha; for pest or weed control at 140 g/ha: 140 g ai/ha
Description: as §1, §2, §3

[12] = tested on: ZEAMX: maize, corn (Zea mays); assay: Post-Emergent Test II herbicidal activity; type: in vivo; conditions: post-emergence, 336 h, 14 days, read-out: Visual Growth Reduction (%) 14 Days After Application ZEAMX
Description: as §1, §2, §3

Compound | pest or weed control at 35 g/ha [1] [%] | pest or weed control at 70 g/ha [1] [%] | pest or weed control at 140 g/ha [1] [%] | pest or weed control at 35 g/ha [2] [%] | pest or weed control at 70 g/ha [2] [%] | pest or weed control at 140 g/ha [2] [%] | pest or weed control at 35 g/ha [3] [%] | pest or weed control at 70 g/ha [3] [%] | pest or weed control at 140 g/ha [3] [%] | pest or weed control at 35 g/ha [4] [%] | pest or weed control at 70 g/ha [4] [%] | pest or weed control at 140 g/ha [4] [%] | pest or weed control at 35 g/ha [5] [%] | pest or weed control at 70 g/ha [5] [%] | pest or weed control at 140 g/ha [5] [%] | pest or weed control at 35 g/ha [6] [%] | pest or weed control at 70 g/ha [6] [%] | pest or weed control at 140 g/ha [6] [%] | pest or weed control at 35 g/ha [7] [%] | pest or weed control at 70 g/ha [7] [%] | other results
COC(=O)c1nc(-c2ccc3nonc3c2OC)cc(N)c1Cl [Compound 9, Methyl 4-amino-3-chloro-6-(4-methoxybenzo[c][1,2,5]oxadiazol-5-yl)picolinate] | 0 to 29 | 0 to 29 | 0 to 29 | 60 to 74 | 60 to 74 | 75 to 84 | 0 to 29 | 0 to 29 | 0 to 29 | 45 to 59 | 60 to 74 | 60 to 74 | 0 to 29 | 0 to 29 | 0 to 29 | 0 to 29 | 0 to 29 | 0 to 29 | 0 to 29 | 0 to 29 | pest or weed control at 140 g/ha [7]: 0 to 29%; pest or weed control at 35 g/ha [8]: 0 to 29%; pest or weed control at 70 g/ha [8]: 0 to 29%; pest or weed control at 140 g/ha [8]: 0 to 29%; pest or weed control at 35 g/ha [9]: 0 to 29%; pest or weed control at 70 g/ha [9]: 0 to 29%; pest or weed control at 140 g/ha [9]: 0 to 29%; pest or weed control at 35 g/ha [10]: 0 to 29%; pest or weed control at 70 g/ha [10]: 0 to 29%; pest or weed control at 140 g/ha [10]: 0 to 29%; pest or weed control at 35 g/ha [11]: 0 to 29%; pest or weed control at 70 g/ha [11]: 0 to 29%; pest or weed control at 140 g/ha [11]: 0 to 29%; melting point: 142 to 144 °C
COC(=O)c1nc(-c2ccc3nonc3c2)c(F)c(N)c1Cl [Compound 1, Methyl 4-amino-6-(benzo[c][1,2,5]oxadiazol-5-yl)-3-chloro-5-fluoropicolinate] | 60 to 74 | 60 to 74 | 60 to 74 | 95 to 100 | 95 to 100 | 95 to 100 | 85 to 94 | 95 to 100 | 95 to 100 | 75 to 84 | 75 to 84 | 95 to 100 | 0 to 29 | 0 to 29 | 95 to 100 | 60 to 74 | 60 to 74 | 60 to 74 | 0 to 29 | 0 to 29 | pest or weed control at 140 g/ha [7]: 0 to 29%; pest or weed control at 35 g/ha [8]: 85 to 94%; pest or weed control at 70 g/ha [8]: 85 to 94%; pest or weed control at 140 g/ha [8]: 95 to 100%; pest or weed control at 35 g/ha ([12]; 35 g ai/ha): 60 to 74%; pest or weed control at 70 g/ha ([12]; 70 g ai/ha): 60 to 74%; pest or weed control at 140 g/ha ([12]; 140 g ai/ha): 60 to 74%; pest or weed control at 35 g/ha [9]: 45 to 59%; pest or weed control at 70 g/ha [9]: 45 to 59%; pest or weed control at 140 g/ha [9]: 60 to 74%; pest or weed control at 35 g/ha [11]: 75 to 84%; pest or weed control at 70 g/ha [11]: 75 to 84%; melting point: 180 to 182 °C
COC(=O)c1nc(-c2cccc3nonc23)cc(N)c1Cl [Compound 16] | 0 to 29 | 0 to 29 | 0 to 29 | 60 to 74 | 75 to 84 | 85 to 94 | 0 to 29 | 30 to 44 | 60 to 74 | 85 to 94 | 95 to 100 | 95 to 100 | 0 to 29 | 0 to 29 | 0 to 29 | 30 to 44 | 45 to 59 | 60 to 74 | 0 to 29 | 0 to 29 | pest or weed control at 140 g/ha [7]: 0 to 29%; pest or weed control at 35 g/ha [8]: 0 to 29%; pest or weed control at 70 g/ha [8]: 0 to 29%; pest or weed control at 140 g/ha [8]: 0 to 29%; pest or weed control at 35 g/ha [9]: 0 to 29%; pest or weed control at 70 g/ha [9]: 0 to 29%; pest or weed control at 140 g/ha [9]: 0 to 29%; pest or weed control at 35 g/ha [10]: 0 to 29%; pest or weed control at 70 g/ha [10]: 0 to 29%; pest or weed control at 140 g/ha [10]: 0 to 29%; pest or weed control at 35 g/ha [11]: 0 to 29%; pest or weed control at 70 g/ha [11]: 0 to 29%; pest or weed control at 140 g/ha [11]: 0 to 29%; melting point: 157 to 160 °C
